Data on 16 compounds can be found in ChEMBL document CHEMBL1137622, “8-Hydroxy-3,4-dihydropyrrolo[1,2-a]pyrazine-1(2H)-one HIV-1 integrase inhibitors” (Bioorg Med Chem Lett, 2007).

The target in data set [1] is Human immunodeficiency virus type 1 integrase (Human immunodeficiency virus 1, UniProt Q7ZJM1). Kind of data set: Inhibition of recombinant HIV1 integrase strand transfer activity.
Data set [2] concerns Human immunodeficiency virus 1. Briefly: Antiviral activity against HIV1 3B infected in human MT4 cells after 24 hrs by p24 ELISA. The data set is classed as functional. The conditions noted are these: Human immunodeficiency virus 1, 3B, MT4, 24 h; read-out: CIC95.
A further data set relates to MT4. Kind of data set: Cytotoxicity against human MT4 cells at concentrations up to 20 uM. The class given is cell-based.
Data set [3] has as its system Human immunodeficiency virus 1. Briefly: Antiviral activity against HIV1 at concentrations upto 20 uM. The data set is classed as functional, organism-based.
A short description of data set [4]: Clearance in rat at 2 mg/kg, iv. Set-up: dose 2 mg/kg, route intravenous. The class given is ADME, organism-based. To be noted: in vivo.
Data set [5] in a line: Half life in rat at 2 mg/kg, iv. The data set is classed as ADME, organism-based. Also noted: dose 2 mg/kg, route intravenous. The conditions noted are these: in vivo.

Each structure is given as a SMILES string. Calls of active or inactive are those of the source. No cut-off for these calls is given here.

Human immunodeficiency virus type 1 integrase, sequence (Q7ZJM1 whole entry): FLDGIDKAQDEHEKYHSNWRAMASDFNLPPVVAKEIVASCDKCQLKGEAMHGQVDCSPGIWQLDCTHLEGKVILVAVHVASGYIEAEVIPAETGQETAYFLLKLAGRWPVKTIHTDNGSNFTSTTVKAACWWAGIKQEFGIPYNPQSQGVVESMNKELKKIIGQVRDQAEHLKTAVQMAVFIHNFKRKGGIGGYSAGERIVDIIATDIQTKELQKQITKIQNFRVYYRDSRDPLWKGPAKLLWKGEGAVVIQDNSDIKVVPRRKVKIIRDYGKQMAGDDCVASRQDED
Description for physchem: Dissociation constant, pKa of the compound

On to `CCOC(=O)c1cn2c(c1O)C(=O)N(Cc1cccc(Cl)c1)CC2`, for which the IC50 in data set [1] worked out at 0.03 µM. Besides, the IC95 in data set [2] came to 1.25 µM. Moreover, the Activity result in the data set with MT4 is recorded as “Non-toxic”.

Turning to `CNC(=O)c1cn2c(c1O)C(=O)N(Cc1ccc(Cl)cc1)CC2`, the IC50 in data set [1] was determined as 0.06 µM. Also, in data set [2], the IC95 came to 2.5 µM.

Turning to `CCOC(=O)c1cn2c(c1O)C(=O)N(Cc1ccc(F)c(Cl)c1)CC2`, the IC50 in data set [1] is 0.02 µM. For the same compound, the IC95 in data set [2] was found to be 0.94 µM. Also, in the data set on MT4, the Activity result is on record as “Non-toxic”.

As to `CNC(=O)c1cn2c(c1O)C(=O)N(Cc1ccc(F)cc1)CC2`, in data set [1], the IC50 was 0.08 µM. Besides, the IC95 in data set [2] was determined as 10 µM.

Regarding `O=C(O)c1cn2c(c1O)C(=O)N(Cc1ccccc1)CC2`, in data set [1], the IC50 came out at 0.08 µM. In data set [2], the IC95 was > 20 µM. The outcome in data set [3] was inactive. Also, in “physchem”, the pKa came out at 3.8.

Consider `O=C1c2c(O)c3n(c2CCN1Cc1ccc(F)cc1)CCN(Cc1ccc(F)cc1)C3=O`, for which the IC50 in data set [1] was < 0.01 µM. The IC95 in data set [2] was 0.07 µM.

As for `CCOC(=O)c1cn2c(c1O)C(=O)N(Cc1ccc(F)cc1)CCC2`, the IC50 in data set [1] was > 5 µM.

With `CN1CCn2c3c(c(O)c2C1=O)C(=O)N(Cc1ccc(F)cc1)CC3`, the IC50 in data set [1] was < 0.01 µM. Also, in data set [2], the IC95 came to 0.16 µM.

For `CCOC(=O)c1cn2c(c1O)C(=O)N(Cc1ccc(Cl)cc1)CC2`, the IC50 in data set [1] stood at 0.04 µM. Further, the IC95 in data set [2] is 1.02 µM. Besides, the Activity result in the data set on MT4 is recorded as “Non-toxic”.

Consider `CCOC(=O)c1cn2c(c1O)C(=O)N(Cc1ccc(F)cc1)CC2`, for which, in data set [1], the IC50 came out at 0.04 µM. The IC95 in data set [2] was determined as 3.23 µM. In addition, the Activity result in the data set with MT4 is “Non-toxic”.

Consider `CNC(=O)c1cn2c(c1O)C(=O)N(Cc1ccc(Cl)c(Cl)c1)CC2`, for which the IC50 in data set [1] came out at 0.04 µM. The IC95 in data set [2] amounted to 1.25 µM.

For `CCOC(=O)c1cn2c(c1O)C(=O)N(Cc1ccc(Cl)c(Cl)c1)CC2`, the IC50 in data set [1] stood at 0.01 µM. In data set [2], the IC95 stood at 0.31 µM. Besides, the Activity entry in the data set on MT4 was “Non-toxic”. In data set [4], the clearance is 1.8 L/h/kg. Besides, the half-life in data set [5] is 30 min.

On to `O=C(O)c1cn2c(c1O)C(=O)N(Cc1cccc(Cl)c1)CC2`, for which the IC50 in data set [1] was found to be 0.01 µM. The IC95 in data set [2] is > 20 µM. Besides, the result in data set [3] was inactive. This compound also gave a pKa in the data set “physchem” of 3.8.

`CCOC(=O)c1cn2c(c1O)C(=O)N(Cc1cccc(F)c1)CC2`: the IC50 in data set [1] was found to be 0.11 µM. Further, the IC95 in data set [2] worked out at 9.38 µM. The Activity entry in the data set with MT4 was “Non-toxic”.

Turning to `CCOC(=O)c1cn2c(c1O)C(=O)N(Cc1ccccc1)CC2`, the IC50 in data set [1] was 0.22 µM. In addition, the IC95 in data set [2] was found to be 20 µM. Further, in the data set on MT4, the Activity entry was “Non-toxic”.

As to `CN1CCc2c(c(O)c3n2CCN(Cc2ccc(F)cc2)C3=O)C1=O`, the concentration for half-maximal inhibition (IC50) in data set [1] is < 0.01 µM. Besides, the IC95 in data set [2] was 0.39 µM.
